From ChEMBL document CHEMBL1201862, “PubChem BioAssay data set” (2004)
The source made the active and inactive calls.

Tests used:
[1] = NIH/3T3 fibroblast cytotoxicity, dose response, cytotoxicity control for T. cruzi growth inhibitor project, cell-based, cherry-pick samples, set 2 (AID 651817); format: functional; conditions: NIH3T3
Cytochrome P450 2C19 = Cytochrome P450 2C19 (Homo sapiens, UniProt P33261); experiment: Cytochrome panel assay with activity outcomes. Panel member name: p450-cyp2c19 Compounds with AC50 equal or less than 10 uM are considered active; format: functional; conditions: read-out: AC50
Sequence of Cytochrome P450 2C19 (P33261 whole entry, the tested form may be a part): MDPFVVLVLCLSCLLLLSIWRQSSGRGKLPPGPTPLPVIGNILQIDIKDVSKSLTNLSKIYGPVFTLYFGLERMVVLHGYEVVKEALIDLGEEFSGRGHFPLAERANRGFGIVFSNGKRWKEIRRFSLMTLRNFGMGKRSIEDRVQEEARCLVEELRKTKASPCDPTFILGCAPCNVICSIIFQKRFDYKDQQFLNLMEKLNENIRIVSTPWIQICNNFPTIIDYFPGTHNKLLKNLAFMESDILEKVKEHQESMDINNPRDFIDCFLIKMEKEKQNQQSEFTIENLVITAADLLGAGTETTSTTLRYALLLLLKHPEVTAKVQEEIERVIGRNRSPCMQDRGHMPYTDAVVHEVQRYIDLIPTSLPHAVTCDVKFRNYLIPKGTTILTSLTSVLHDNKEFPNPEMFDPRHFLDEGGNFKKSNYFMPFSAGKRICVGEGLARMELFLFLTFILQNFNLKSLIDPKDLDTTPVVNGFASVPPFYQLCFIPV

[2] = ARNT/TACC3 interaction disruptors, potency, confirmation, biochemical, AlphaScreen, cherry-picked samples (AID 651703); format: functional, Homo sapiens;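 note: His-tagged ARNT PAS-B domain paired with GST-TACC3 E629A dimer coactivator fragment; potency of inhibitors that break up the complex and lower AlphaScreen signal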
Cytochrome P450 2C9 = Cytochrome P450 2C9 (Homo sapiens, UniProt P11712)
Sequence of Cytochrome P450 2C9 (P11712 whole entry): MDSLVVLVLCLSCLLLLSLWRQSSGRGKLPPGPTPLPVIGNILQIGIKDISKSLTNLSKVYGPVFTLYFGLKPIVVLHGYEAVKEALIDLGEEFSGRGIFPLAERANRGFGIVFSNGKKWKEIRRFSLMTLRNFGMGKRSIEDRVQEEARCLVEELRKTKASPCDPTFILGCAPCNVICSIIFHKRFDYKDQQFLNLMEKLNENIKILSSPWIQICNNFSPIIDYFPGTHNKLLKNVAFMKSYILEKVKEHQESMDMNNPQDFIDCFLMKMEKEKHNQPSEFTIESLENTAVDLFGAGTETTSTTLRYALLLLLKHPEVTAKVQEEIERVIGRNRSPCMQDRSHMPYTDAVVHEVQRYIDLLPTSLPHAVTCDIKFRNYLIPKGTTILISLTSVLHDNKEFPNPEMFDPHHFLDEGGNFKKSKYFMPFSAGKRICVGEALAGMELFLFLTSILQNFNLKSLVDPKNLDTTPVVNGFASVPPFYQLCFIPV

[3] = biological target: Mitochondrial peptide methionine sulfoxide reductase (Bos taurus, UniProt P54149); experiment: Absorbance-based biochemical high throughput dose response assay for activators of Methionine sulfoxide reductase A (MsrA).; format: functional
Sequence of Mitochondrial peptide methionine sulfoxide reductase (P54149 whole entry): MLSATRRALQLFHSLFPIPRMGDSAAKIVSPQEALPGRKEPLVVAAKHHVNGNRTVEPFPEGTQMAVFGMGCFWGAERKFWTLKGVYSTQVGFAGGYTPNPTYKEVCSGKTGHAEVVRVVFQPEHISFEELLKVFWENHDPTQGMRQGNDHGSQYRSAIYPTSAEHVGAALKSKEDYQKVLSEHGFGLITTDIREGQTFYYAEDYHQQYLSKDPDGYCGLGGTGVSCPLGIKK

[4] = inhibitors of intracellular T. cruzi replication, confirmation, NIH3T3 host cells, beta-gal luminescence (AID 2044); format: functional, cell-based;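 note: intracellular parasites grown in NIH/3T3 mouse fibroblasts as host cells; luminescent beta-galactosidase reporter signal from transgenic T. cruzi replicating inside host cells; inhibitors lower the luminescence signal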
[5] = cytotoxicity toward NIH3T3 fibroblasts, dose response, counter-screen, cell-based, ATP luminescence, mouse fibroblasts (AID 2010); format: functional;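 note: cells exposed to compound for about 90 hours before reading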
[6] = biological target: T1, Mannose-6-phosphate isomerase (Homo sapiens, UniProt P34949); experiment: human PMI inhibitors, high substrate, primary screen, biochemical, fluorescence intensity, high mannose 6-phosphate (AID 1220)
T1 sequence (P34949 whole entry): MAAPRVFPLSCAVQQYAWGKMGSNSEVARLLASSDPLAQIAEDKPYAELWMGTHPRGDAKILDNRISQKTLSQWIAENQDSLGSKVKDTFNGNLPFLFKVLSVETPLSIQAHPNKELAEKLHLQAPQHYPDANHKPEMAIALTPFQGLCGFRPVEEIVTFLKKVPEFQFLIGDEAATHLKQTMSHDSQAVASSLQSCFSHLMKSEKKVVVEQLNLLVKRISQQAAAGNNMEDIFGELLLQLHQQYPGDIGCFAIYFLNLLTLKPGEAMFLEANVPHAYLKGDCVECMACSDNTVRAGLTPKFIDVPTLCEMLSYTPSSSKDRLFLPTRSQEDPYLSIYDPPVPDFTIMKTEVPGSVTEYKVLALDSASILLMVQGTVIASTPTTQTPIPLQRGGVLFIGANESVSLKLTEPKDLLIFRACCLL

[7] = biological target: Heat shock protein HSP 90-alpha (Homo sapiens, UniProt P07900); format: functional, organism-based
Melanocortin receptor 4 = Melanocortin receptor 4 (Homo sapiens, UniProt P32245); format: functional, cell-based;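 note: Cell-based assay with luminescence read-out, confirmatory dose-response testing for agonist activity of biased ligands at MC4R; human U2OS cells with tagged receptor and beta-arrestin; potency of agonists that increase receptor coupling to beta-arrestin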
Sequence of Melanocortin receptor 4 (P32245 whole entry): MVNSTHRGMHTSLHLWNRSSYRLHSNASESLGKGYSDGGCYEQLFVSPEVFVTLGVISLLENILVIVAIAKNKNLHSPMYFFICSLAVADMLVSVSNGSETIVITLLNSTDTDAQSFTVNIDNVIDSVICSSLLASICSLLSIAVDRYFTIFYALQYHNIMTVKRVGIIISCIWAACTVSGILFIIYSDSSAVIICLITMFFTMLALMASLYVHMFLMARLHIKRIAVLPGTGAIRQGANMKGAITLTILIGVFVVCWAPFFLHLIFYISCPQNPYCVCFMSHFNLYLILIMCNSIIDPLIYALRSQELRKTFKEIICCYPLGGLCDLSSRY

[8] = biological target: Heat shock cognate 71 kDa protein (Homo sapiens, UniProt P11142); experiment: In Vitro Hsc70 Dose Response Fluorescence Polarization Assay. [Related pubchem assays: 1072 ]
Sequence of Heat shock cognate 71 kDa protein (P11142 whole entry): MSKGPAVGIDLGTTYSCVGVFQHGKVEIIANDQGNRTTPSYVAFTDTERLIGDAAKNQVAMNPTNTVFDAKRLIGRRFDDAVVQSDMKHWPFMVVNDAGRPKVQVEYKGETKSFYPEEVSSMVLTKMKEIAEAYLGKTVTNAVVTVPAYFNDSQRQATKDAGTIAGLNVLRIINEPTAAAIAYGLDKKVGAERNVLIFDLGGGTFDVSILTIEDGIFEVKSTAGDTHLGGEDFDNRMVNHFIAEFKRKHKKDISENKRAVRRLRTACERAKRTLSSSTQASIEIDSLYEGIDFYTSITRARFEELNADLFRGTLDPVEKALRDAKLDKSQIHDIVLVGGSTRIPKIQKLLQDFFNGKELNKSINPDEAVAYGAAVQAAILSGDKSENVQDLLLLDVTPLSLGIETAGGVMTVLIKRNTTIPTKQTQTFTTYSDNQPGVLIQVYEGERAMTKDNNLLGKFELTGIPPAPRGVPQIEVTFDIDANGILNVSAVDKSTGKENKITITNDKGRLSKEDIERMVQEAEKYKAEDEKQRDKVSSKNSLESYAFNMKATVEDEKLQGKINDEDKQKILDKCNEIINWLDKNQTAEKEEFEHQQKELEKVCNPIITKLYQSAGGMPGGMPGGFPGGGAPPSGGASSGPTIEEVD

Large T antigen = Large T antigen (Simian virus 40, UniProt P03070); format: functional, Betapolyomavirus macacae;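 note: Confirmatory-stage PubChem screen for compounds that inhibit SV40 T antigen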
Sequence of Large T antigen (P03070 whole entry): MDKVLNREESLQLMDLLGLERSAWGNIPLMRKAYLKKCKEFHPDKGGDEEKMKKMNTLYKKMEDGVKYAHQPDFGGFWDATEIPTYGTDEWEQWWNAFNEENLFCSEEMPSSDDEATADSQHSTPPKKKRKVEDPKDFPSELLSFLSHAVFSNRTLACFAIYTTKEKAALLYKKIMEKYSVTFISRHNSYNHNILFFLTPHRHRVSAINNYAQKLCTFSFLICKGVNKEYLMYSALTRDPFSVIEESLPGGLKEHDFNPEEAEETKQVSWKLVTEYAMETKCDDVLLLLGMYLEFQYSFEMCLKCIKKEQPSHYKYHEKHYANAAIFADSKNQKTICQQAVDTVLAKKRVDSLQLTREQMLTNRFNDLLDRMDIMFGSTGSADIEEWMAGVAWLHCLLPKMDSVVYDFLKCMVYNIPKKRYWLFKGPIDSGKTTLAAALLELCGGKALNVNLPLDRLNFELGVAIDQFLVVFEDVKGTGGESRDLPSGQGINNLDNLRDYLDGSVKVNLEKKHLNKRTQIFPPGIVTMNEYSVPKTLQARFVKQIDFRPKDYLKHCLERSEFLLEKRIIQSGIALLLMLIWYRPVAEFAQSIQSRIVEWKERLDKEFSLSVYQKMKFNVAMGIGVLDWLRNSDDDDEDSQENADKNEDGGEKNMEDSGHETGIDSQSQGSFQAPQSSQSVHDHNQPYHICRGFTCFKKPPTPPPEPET

[9] = biological target: T2, Small ubiquitin-related modifier 2 (Homo sapiens, UniProt P61956); experiment: inhibitors of SUMO2 protein-protein interaction, dose response, selectivity assay for SUMO1 interaction inhibitor project, biochemical, FRET, human SUMO2, uHTS hits (AID 624384); format: functional; conditions: read-out: IC50_Mean
T2 sequence (P61956 whole entry): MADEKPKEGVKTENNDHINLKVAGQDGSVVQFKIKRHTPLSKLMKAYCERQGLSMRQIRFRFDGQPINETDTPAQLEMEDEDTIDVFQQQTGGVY

[10] = biological target: T3, Tyrosine-protein phosphatase non-receptor type 7 (Homo sapiens, UniProt P35236); format: functional
T3 sequence (P35236 whole entry): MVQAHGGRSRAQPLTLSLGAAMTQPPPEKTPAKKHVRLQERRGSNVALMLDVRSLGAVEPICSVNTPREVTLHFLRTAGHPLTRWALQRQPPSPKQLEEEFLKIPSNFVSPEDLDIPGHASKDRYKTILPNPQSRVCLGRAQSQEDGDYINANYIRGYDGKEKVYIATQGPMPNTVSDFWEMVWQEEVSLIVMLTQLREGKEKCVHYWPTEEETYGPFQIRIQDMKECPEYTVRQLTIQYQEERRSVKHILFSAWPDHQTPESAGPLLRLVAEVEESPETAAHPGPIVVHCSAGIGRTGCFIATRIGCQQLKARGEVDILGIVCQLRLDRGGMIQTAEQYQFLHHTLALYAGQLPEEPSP

[11] = biological target: Heat shock 70 kDa protein 1A (Homo sapiens, UniProt P0DMV8); experiment: Hsp70 inhibitors, SAR follow-up, biochemical, fluorescence polarization (AID 1072)
Sequence of Heat shock 70 kDa protein 1A (P0DMV8 whole entry): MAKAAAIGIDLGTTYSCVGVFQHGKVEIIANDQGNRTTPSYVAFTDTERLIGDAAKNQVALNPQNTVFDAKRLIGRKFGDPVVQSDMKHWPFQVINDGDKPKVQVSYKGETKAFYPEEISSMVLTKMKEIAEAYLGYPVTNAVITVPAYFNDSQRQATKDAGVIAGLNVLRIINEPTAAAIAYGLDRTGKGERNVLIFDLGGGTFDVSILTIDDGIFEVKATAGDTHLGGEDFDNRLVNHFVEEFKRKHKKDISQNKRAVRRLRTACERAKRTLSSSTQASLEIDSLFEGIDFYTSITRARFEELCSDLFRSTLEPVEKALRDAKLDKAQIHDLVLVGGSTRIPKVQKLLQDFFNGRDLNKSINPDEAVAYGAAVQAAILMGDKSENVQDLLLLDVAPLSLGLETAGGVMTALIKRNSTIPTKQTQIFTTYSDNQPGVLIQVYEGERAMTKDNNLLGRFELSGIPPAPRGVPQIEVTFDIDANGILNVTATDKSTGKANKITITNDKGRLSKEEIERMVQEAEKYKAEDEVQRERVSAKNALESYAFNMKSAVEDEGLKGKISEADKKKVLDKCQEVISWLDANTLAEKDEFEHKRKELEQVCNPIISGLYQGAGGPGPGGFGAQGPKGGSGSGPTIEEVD

[12] = biological target: T4, Small ubiquitin-related modifier 1 (Homo sapiens, UniProt P63165); experiment: inhibitors of SUMO1 partner interactions, dose response, biochemical, FRET (AID 624383); format: functional; conditions: read-out: IC50_Mean
T4 sequence (P63165 whole entry): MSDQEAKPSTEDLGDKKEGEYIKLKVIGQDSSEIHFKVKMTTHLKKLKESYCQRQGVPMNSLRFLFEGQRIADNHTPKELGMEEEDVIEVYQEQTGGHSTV

HeLa = experiment: HeLa cell cytotoxicity, dose response, cytotoxicity control, 24 h, cherry-picked samples (AID 504726); format: functional, cell-based; conditions: Homo sapiens;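 note: potency for cytotoxicity as loss of luminescence signal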
[13] = biological target: Glyceraldehyde-3-phosphate dehydrogenase (Homo sapiens, UniProt P04406)
NS3 = NS3 (Hepatitis C virus, UniProt A3EZJ3); experiment: PubChem AID 2173; set-up: species or system Hepacivirus hominis
[14] = biological target: T5, Dual specificity protein phosphatase 6 (Rattus norvegicus, UniProt Q64346); format: functional
T5 sequence (Q64346 whole entry): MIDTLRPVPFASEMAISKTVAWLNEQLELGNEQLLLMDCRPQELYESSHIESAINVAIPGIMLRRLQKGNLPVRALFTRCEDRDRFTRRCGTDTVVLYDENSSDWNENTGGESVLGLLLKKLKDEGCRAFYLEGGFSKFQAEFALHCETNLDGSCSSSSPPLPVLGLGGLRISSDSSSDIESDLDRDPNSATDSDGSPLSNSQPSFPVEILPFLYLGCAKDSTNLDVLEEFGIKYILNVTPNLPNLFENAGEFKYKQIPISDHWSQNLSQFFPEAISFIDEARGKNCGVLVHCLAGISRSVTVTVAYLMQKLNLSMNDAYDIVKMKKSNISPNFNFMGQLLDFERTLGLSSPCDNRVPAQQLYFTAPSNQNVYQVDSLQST

[15] = biological target: T4, Small ubiquitin-related modifier 1; experiment: inhibitors of SUMO1 peptide binding, dose response, biochemical, fluorescence polarization, uHTS hits (AID 624382); format: functional; conditions: read-out: IC50_Mean
[16] = biological target: T6, Rac GTPase-activating protein 1 (Homo sapiens, UniProt Q9H0H5); experiment: MgcRacGAP GTPase-activating activity inhibitors, confirmation, biochemical, ADP Hunter fluorescence, primary and confirmatory (AID 624330); format: functional
T6 sequence (Q9H0H5 whole entry): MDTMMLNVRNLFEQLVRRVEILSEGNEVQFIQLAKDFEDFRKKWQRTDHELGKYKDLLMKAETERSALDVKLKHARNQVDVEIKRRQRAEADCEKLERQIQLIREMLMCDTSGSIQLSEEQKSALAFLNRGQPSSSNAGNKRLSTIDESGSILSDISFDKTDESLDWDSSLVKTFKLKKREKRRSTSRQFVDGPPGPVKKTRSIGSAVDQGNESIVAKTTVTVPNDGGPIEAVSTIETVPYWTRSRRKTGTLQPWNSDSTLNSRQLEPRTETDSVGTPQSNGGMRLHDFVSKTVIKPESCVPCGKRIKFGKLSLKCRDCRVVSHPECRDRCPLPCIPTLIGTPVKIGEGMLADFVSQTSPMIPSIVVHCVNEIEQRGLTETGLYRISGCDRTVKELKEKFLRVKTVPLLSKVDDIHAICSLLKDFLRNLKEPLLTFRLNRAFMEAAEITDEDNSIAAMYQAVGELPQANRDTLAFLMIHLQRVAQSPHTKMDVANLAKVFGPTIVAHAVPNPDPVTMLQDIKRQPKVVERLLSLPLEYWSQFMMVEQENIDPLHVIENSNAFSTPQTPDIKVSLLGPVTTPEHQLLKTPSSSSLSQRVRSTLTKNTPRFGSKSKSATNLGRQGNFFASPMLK

[17] = biological target: T5, Dual specificity protein phosphatase 6
[18] = biological target: T2, Small ubiquitin-related modifier 2; experiment: SUMO2–SIM peptide binding inhibitors, dose response, selectivity assay for SUMO1 interaction inhibitor project, biochemical, fluorescence polarization, uHTS hits (AID 624385); format: functional; conditions: read-out: IC50_Mean
ORF 73 = biological target: T7, ORF 73 (Human herpesvirus 8, UniProt O40947); experiment: inhibitors of C-LANA binding to LBS DNA, dose response, biochemical, fluorescence polarization, cherry-picked samples (AID 504725); set-up: species or system Human gammaherpesvirus 8;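 note: fluorescence polarization of a labeled DNA duplex reporting LANA DNA binding; potency is for inhibitors that block LANA binding to the DNA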
T7 sequence (O40947 whole entry): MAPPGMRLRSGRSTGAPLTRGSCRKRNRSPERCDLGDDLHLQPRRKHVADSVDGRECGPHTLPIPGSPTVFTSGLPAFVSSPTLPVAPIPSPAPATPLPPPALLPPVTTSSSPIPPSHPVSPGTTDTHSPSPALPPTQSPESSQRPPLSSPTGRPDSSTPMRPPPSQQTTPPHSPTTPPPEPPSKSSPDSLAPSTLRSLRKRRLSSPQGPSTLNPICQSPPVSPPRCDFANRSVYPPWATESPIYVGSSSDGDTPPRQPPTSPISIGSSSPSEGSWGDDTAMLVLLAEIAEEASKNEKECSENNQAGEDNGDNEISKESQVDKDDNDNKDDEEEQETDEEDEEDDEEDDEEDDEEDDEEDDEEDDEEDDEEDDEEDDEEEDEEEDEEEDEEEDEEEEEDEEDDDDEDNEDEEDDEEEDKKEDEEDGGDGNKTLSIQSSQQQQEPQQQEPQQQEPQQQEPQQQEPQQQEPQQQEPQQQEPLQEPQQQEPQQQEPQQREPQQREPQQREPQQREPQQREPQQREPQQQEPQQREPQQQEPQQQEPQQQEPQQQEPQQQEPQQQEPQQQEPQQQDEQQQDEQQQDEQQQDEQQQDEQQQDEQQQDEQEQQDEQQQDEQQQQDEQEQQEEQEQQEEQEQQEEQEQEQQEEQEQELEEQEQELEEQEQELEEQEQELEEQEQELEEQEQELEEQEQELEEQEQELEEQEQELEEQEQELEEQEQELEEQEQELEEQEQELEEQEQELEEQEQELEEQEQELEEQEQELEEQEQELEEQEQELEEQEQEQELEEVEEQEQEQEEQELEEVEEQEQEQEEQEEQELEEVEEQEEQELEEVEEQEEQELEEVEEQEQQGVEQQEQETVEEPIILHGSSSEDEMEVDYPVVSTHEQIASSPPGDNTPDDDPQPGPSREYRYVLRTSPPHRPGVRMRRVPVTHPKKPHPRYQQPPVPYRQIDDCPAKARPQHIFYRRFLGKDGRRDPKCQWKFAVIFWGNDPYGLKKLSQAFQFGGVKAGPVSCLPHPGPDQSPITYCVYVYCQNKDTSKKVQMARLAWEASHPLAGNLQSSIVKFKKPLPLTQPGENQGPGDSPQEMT

[19] = biological target: Aryl hydrocarbon receptor (Homo sapiens, UniProt P35869); conditions: Potency;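 note: confirmatory quantitative high-throughput screen measuring activation of the AhR signaling pathway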
[20] = biological target: Ras and Rab interactor 1/Tyrosine-protein kinase ABL1 (Homo sapiens, UniProt P00519+Q13671); format: functional;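 note: biochemical TR-FRET dose-response test measuring inhibition of binding between Rin1 and Abl proteins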
[21] = biological target: T8, Low molecular weight phosphotyrosine protein phosphatase (Homo sapiens, UniProt P24666); format: functional; conditions: read-out: IC50_Mean
T8 sequence (P24666 whole entry): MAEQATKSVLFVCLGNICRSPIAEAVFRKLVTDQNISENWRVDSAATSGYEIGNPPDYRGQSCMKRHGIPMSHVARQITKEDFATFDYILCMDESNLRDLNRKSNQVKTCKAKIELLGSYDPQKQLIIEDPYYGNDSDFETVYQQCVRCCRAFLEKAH

Cytochrome P450 3A4 = Cytochrome P450 3A4 (Homo sapiens, UniProt P08684);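 note: CYP3A4 tested as one member of a cytochrome P450 panel screen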
Sequence of Cytochrome P450 3A4 (P08684 whole entry): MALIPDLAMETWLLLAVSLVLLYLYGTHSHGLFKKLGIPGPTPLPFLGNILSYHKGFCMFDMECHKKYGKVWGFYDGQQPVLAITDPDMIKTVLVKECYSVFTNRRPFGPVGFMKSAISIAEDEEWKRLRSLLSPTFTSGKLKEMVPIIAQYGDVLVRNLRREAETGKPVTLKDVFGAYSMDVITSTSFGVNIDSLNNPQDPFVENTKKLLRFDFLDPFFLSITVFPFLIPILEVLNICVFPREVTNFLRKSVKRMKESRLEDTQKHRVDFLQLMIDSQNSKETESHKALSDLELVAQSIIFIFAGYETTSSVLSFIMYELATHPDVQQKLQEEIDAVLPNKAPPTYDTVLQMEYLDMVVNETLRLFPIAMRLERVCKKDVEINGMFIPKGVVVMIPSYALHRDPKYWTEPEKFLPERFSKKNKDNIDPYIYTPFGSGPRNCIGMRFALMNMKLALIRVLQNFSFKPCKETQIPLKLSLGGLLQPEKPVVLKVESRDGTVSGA

Cytochrome P450 2D6 = Cytochrome P450 2D6 (Homo sapiens, UniProt P10635);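 note: CYP2D6 member of a cytochrome P450 panel assay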
Sequence of Cytochrome P450 2D6 (P10635 whole entry): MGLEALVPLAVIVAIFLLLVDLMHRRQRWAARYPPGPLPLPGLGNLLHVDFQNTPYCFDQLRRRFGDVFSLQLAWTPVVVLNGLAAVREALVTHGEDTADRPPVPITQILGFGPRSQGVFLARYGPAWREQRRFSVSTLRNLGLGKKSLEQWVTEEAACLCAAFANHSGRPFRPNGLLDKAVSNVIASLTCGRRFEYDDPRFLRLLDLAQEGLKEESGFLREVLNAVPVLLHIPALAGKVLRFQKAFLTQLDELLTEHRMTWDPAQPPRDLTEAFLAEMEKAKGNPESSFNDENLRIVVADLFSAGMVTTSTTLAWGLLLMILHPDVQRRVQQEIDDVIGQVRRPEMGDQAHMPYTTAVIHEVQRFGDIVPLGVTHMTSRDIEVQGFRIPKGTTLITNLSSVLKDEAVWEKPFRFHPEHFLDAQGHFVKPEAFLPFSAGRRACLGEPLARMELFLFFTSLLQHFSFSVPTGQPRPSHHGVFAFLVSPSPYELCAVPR

[22] = biological target: T8, Low molecular weight phosphotyrosine protein phosphatase; format: functional; conditions: read-out: IC50_Mean; remark: listed apart in the source

Cc1ccc(S(=O)(=O)Nc2ccc3c(c2)CC(=O)N([C@@H](C)CO)C[C@@H](C)[C@H](CN(C)S(=O)(=O)c2ccc(Cl)cc2)O3)cc1
AC50 [1]: 17.8 µM (active)

CC(C)c1ccc(O)c(NC(=O)c2nc[nH]n2)c1
AC50 (Cytochrome P450 2C19): 25.1 µM (inconclusive) | AC50 [2]: 118 µM (active) | AC50 (Cytochrome P450 2C9): 20 µM (inconclusive)

O=[N+]([O-])c1ccc(/C=N/c2cccc3ccccc23)s1
EC50 [3]: > 104 µM (inactive) | EC50 [4]: 2.73 µM (active) | EC50 [5]: > 60 µM (not active) | IC50 [6]: > 50 µM (not active) | AC50 [7]: 7.99 µM (active)

Cc1cc(C)nc(Nc2nc(C(N)Cc3ccc(C(F)(F)F)cc3)cs2)n1 (stereo unspecified)
EC50 (Melanocortin receptor 4): > 89.2 µM (inactive)

Cc1cc(C)c2c(c1)NC(C(=O)O)C1CC=CC21 (stereo unspecified)
IC50 [8]: > 100 µM (not active) | IC50 (Large T antigen): 26.8 µM (active) | IC50 [9]: 3.69 µM (active) | IC50 [10]: > 100 µM (not active) | IC50 [11]: > 100 µM (not active) | IC50 [12]: 22.8 µM (inactive) | AC50 (HeLa): 264 µM (active) | IC50 [13]: 91.4 µM (active) | IC50 (NS3): 3.67 µM (active) | IC50 [14]: 46.1 µM (active) | IC50 [15]: 4.97 µM (active) | IC50 [16]: 171 µM (active) | IC50 [17]: 41.3 µM (active) | IC50 [18]: 13.4 µM (active) | AC50 (ORF 73): 61.2 µM (active)

CCSC(=O)N(CC)C1CCCCC1 [CYCLOATE]
AC50 [19]: 0.794 µM (inconclusive)

CCC(c1nc2ccccc2c(=O)n1CCCn1ccnc1)N1C(=O)c2ccccc2C1=O (stereo unspecified)
IC50 [20]: 35.2 µM (inactive)

c1ccc(-c2nc(NCc3cccnc3)c3ccccc3n2)cc1
IC50 [21]: 8.37 µM (active) | AC50 (Cytochrome P450 3A4): 1 µM (inconclusive) | AC50 (Cytochrome P450 2D6): 17.8 µM (inconclusive) | IC50 [22]: 25.1 µM (inactive)
